# How the values were obtained:
# [1] = Velagliflozin plasma levels after single i.v. dosing in lactating cows; assay type: in vivo, Holstein-Frisian cows; settings: i.v. 0.03, 0.3, 3 mg/kg bodyweight, n=4 lactating cows; FIG. 1
# Method: (§1) Velagliflozin treatment is tested in n=4 lactating Holstein-Frisian cows. In weekly intervals, velagliflozin is administered intravenously (i.v.) in increasing doses (0.03 mg/kg bodyweight-0.3 mg/kg bodyweight-3 mg/kg bodyweight) in the morning after AM (ante meridian) milking into the right jugular vein in a volume of 2.5 ml of a propylene glycol based solution per 100 kg body weight. Blood samples for determination of velagliflozin plasma levels and urine samples for determination of glucose and creatinine levels are collected one day prior to treatment and ˜8 hours, ˜24 hours and ˜48 hours post treatment and stored frozen until being analysed. Blood glucose and ketone body (beta-hydroxy-butyrate) concentrations are determined immediately after blood collection at the same time points. The total urinary creatinine excreted per day is rather constant in mammals, thus, since urine volume was not determined, the glucose to creatinine ratio was calculated as a surrogate of the total glucose excretion. All animals are milked twice daily, in the morning (ante meridian—AM) and in the late afternoon (post meridian—PM). Throughout the study, milk yield is recorded as kg per animal per milking.
# [2] = tested on: lactating Holstein-Frisian cows; experiment: Urinary glucose excretion normalized to urinary creatinine after single i.v. dosing in lactating cows; assay type: in vivo; settings: i.v. 0.03, 0.3, 3 mg/kg bodyweight; urine ~8 h, ~24 h, ~48 h post treatment; FIG. 1
# Method: as §1
# [3] = tested on: lactating Holstein-Frisian cows; experiment: Milk yield per milking after single i.v. dosing in lactating cows; assay type: in vivo; settings: i.v. 0.03, 0.3, 3 mg/kg bodyweight after AM milking; PM milking about 8 hours after administration; FIG. 2
# Method: as §1
# [4] = Blood glucose and ketone body (beta-hydroxy-butyrate) concentrations after treatment in lactating cows; assay type: in vivo, Holstein-Frisian cows; settings: after treatment with all dosages (0.03, 0.3, 3 mg/kg bodyweight i.v.)
# Method: as §1
structure (smiles),measurement,setting,value
"N#Cc1ccc([C@@H]2O[C@H](CO)[C@@H](O)[C@H](O)[C@H]2O)cc1Cc1ccc(C2CC2)cc1 [velagliflozin, Velagliflozin]",Velagliflozin plasma level,[1],linear dose to exposure relationship
same,urinary glucose excretion normalized to urinary creatinine,[2],increases in a dose/exposure dependent manner
same,milk yield of the subsequent milking (PM),[3],decreases in a dose/exposure dependent manner
same,blood glucose level,[4],within normal reference ranges
same,ketone body level,[4]; beta-hydroxy-butyrate,within normal reference ranges

# Source: patent US11759474B2, “Use of SGLT-2 inhibitors in the drying-off of non-human mammals” (Boehringer Ingelheim Vetmedica GmbH, priority 2020, dated 2023)
